Where two headings read alike, the source gives them in different places.
Legend:
[1] = Transport of morroniside across Caco-2 cell monolayers (bidirectional, concentration and pH); type: in vitro ADME, human; details: human
Experimental: (§1) An initial stock solution of morroniside in methanol was prepared. The stock solution was then diluted with HBSS (pH = 7.4) and the final concentration of methanol in HBSS remained at 0.5%. […] Caco-2 cells were seeded at a density of 5 × 10^4 cells/cm^2 in a 12-well plate. The transepithelial electrical resistance (TEER) value was measured with a Millipore ERS voltameter (Burlington, MA, USA) in order to evaluate and determine monolayer integrity. The monolayers were ready for experiments 19 to 22 days after seeding.
(§2) During incubation, the culture medium was refreshed every other day. The culture medium was discarded, and 500 μL of HBSS was added to each well and incubated for 20 min at 37 °C. Afterward, each well was rinsed two times with HBSS at 37 °C. Three concentrations of morroniside (5, 25 and 100 μM) were added to either the apical (AP, 0.5 mL) or basolateral side (BL, 1.5 mL), wheras the receiving chamber contained the corresponding volume of blank HBSS medium (pH = 7.4). Incubation was performed at 37 °C for 180 min, with shaking at 50 rpm. To assess drug transport from the AP to BL side, after incubation for 5, 15, 30, 45, 60, 90, 120 or 180 min, 50 μL of the solution from the BL or AP side was collected, and replaced with an equal volume of HBSS. To study the effect of pH on morroniside (5, 25 and 100 μM) transport, the experiments were performed in HBSS, which was adjusted to pH 6.0 or pH 7.4 on the AP side depending on the experiment, and to pH 7.4 on the BL side at 37 °C.
(§3) UPLC-MS/MS data acquisition was performed using Analyst 1.5.2 and MultiQuant 2.1.1 software (Applied Biosystems). All data are shown as the mean ± standard deviation, n = 3. The data were analyzed using SPSS 20.0. In the Caco-2 cell model, the rate of transport was obtained from the amount transported versus the time curve using linear regression. The permeability coefficient of each compound was calculated using the following equation: Papp = (dQ/dt)/(A·C0).
(§4) where, dQ/dt is the rate of drug transport, C0 is the initial concentration of the compound in the donor chamber and A represents the surface area of the cell monolayer. The efflux ratio P was determined by calculating the ratio of Papp in the secretory (BA) direction divided by that in the absorptive (AB) direction, according to the following equation: P=PappBA/PappAB

Caco-2 cell monolayers = assay: as above; type: in vitro ADME, human; details: for PappAB AP-BL: AP to BL; for PappAB AP-BL / PappAB BL-AP: pH 7.4; for PappAB AP-BL / PappAB BL-AP / PappAB: 37 °C, n = 3; for PappAB BL-AP: BL to AP
Experimental: as §1, §2, §3, §4

Caco-2 cells = assay: MTT cytotoxicity assay; type: cell-based, human; details: for Survival Rates (%, mean): Caco-2 cells, five replicates
Experimental: The conditions for Caco-2 cell culture have been described previously. Briefly, Caco-2 cells were cultured in a humidified atmosphere of 5% CO2 and 95% air at 37 °C. The culture medium (DMEM) was supplemented with 10% (v/v) fetal bovine serum, 1% nonessential amino acids, 1% penicillin, and streptomycin. The medium was changed every 2–3 days. When the cell monolayer reached 80–90% confluence, the cells were detached with a solution of trypsin (0.5 mg/mL) and EDTA (0.2 mg/mL) and reseeded at a density of 5×10^4 cells/cm^2.
For the cytotoxicity assay, the cells were incubated in 96-well plates for 24 h. Morroniside dissolved in methanol was diluted with DMEM to terminal concentrations that ranged from 0.1 μM to 200 μM, or CO at 0.63 mg/mL (containing 25 μM morroniside). A negative control group was obtained by the addition of DMEM with methanol at 0.5%(v/v). The cell culture medium treated group was treated only with DMEM. MTT solution was prepared to 1 mg/mL in phosphate-buffered saline and filtered through a 0.2 μm filter. Then, 20 μL of MTT was added into each well. Cells were incubated for 4 h at 37 °C with 5% CO2, 95% air and 100% humidity. After 4 h, the MTT solution was removed and replaced with 150 μL of DMSO. The plate was further incubated for 5 min at room temperature (20 °C), and the optical density of the wells was measured using a plate reader at a wavelength of 490 nm.

[2] = set-up: method as in PMID 17596900, doi:10.1177/1934578X19856526; details: rats; oral vs intravenous; cited from earlier work

## COC(=O)C1=CO[C@@H](O[C@@H]2O[C@H](CO)[C@@H](O)[C@H](O)[C@H]2O)[C@@H]2[C@H](C)O[C@@H](O)C[C@H]12 [morroniside, Morroniside]
[1]; Caco-2, AP side pH 6.0, BL side pH 7.4, 5μM morroniside, 37 °C, n = 3, read-out: PappAB
  Papp A→B at 180 min, 5 μM: 0.55 ± 0.07 ×10⁻⁶ cm/s
[1]; Caco-2, AP side pH 6.0, BL side pH 7.4, 100μM morroniside, 37 °C, n = 3, read-out: PappAB
  Papp A→B at 180 min, 100 μM: 0.62 ± 0.1 ×10⁻⁶ cm/s
[1]; Caco-2, pH 7.4, 5 μM morroniside, AP to BL, over 3 h, read-out: Papp (AP to BL)
  Papp A→B at 180 min, 5 μM: 2.66 ×10⁻⁶ cm/s
[1]; Caco-2, pH 7.4, 25 μM morroniside, AP to BL, pH 7.4, 37 °C, n = 3, read-out: PappAB AP-BL
  Papp A→B at 180 min, 25 μM: 1.83 ± 0.65 ×10⁻⁶ cm/s
[1]; Caco-2, pH 7.4, 100 μM morroniside, AP to BL, over 3 h, read-out: Papp (AP to BL)
  Papp A→B at 180 min, 100 μM: 1.59 ×10⁻⁶ cm/s
[1]; Caco-2, pH 7.4, AP side pH 7.4, 5μM morroniside, 37 °C, n = 3, read-out: PappAB
  Papp A→B at 180 min, 5 μM: 1.88 ± 0.49 ×10⁻⁶ cm/s
[1]; Caco-2, pH 7.4, AP side pH 7.4, 25μM morroniside, 37 °C, n = 3, read-out: PappAB
  Papp A→B at 180 min, 25 μM: 1.92 ± 0.52 ×10⁻⁶ cm/s
[1]; Caco-2, pH 7.4, range over 5, 25 and 100 μM, AP-to-BL, read-out: apparent permeability coefficient (Papp) AP-to-BL
  Papp A→B at 180 min: 1.59 to 2.66 ×10⁻⁶ cm/s
[1]; Caco-2, pH 7.4, 5 μM morroniside, BL to AP, over 3 h
  Papp B→A at 180 min, 5 μM: 4.1 ×10⁻⁶ cm/s
[1]; Caco-2, pH 7.4, 100 μM morroniside, BL to AP, over 3 h
  Papp B→A at 180 min, 100 μM: 2.67 ×10⁻⁶ cm/s
[1]; Caco-2, pH 7.4, range over 5, 25 and 100 μM, BL-to-AP, read-out: apparent permeability coefficient (Papp) BL-to-AP
  Papp B→A at 180 min: 2.67 to 4.1 ×10⁻⁶ cm/s
[1]; Caco-2, 25 μM morroniside, BL to AP, pH 7.4, 37 °C, n = 3, read-out: PappAB BL-AP
  Papp B→A at 180 min, 25 μM: 2.92 ± 0.63 ×10⁻⁶ cm/s
Caco-2 cell monolayers; 5 μM morroniside
  PappAB AP-BL: 2.66±0.60 ×10^-6cm/s
  PappAB BL-AP: 4.10±0.86 ×10^-6cm/s
Caco-2 cell monolayers; 100 μM morroniside
  PappAB AP-BL: 1.59±0.41 ×10^-6cm/s
  PappAB BL-AP: 2.67±0.48 ×10^-6cm/s
Caco-2 cell monolayers; AP side pH 6.0, BL side pH 7.4, 25μM morroniside
  PappAB: 0.61±0.15 ×10^-6cm/s
Caco-2 cell monolayers; AP side pH 7.4, 100μM morroniside
  PappAB: 1.86±0.33 ×10^-6cm/s
Caco-2 cell monolayers; Papp values at the level of 10^−6, Caco-2 transwell
  intestinal absorption assessed from Papp level: poor intestinal absorption
Caco-2 cell monolayers; three concentrations (5, 25, 100 μM), p<0.05
  PappAB at pH 7.4 compared with pH 6.0: significantly higher
Caco-2 cells; 0.1 μM
  Survival Rates (%, mean): 105.12%
Caco-2 cells; 1 μM
  Survival Rates (%, mean): 108.33%
Caco-2 cells; 5 μM
  Survival Rates (%, mean): 101.62%
Caco-2 cells; 10 μM
  Survival Rates (%, mean): 102.41%
Caco-2 cells; 50 μM
  Survival Rates (%, mean): 95.21%
Caco-2 cells; 100 μM
  Survival Rates (%, mean): 91.77%
Caco-2 cells; 200 μM
  Survival Rates (%, mean): 90.72%
Caco-2 cells; highest concentration (200 μM)
  reduction of viability of Caco-2 cells: 8%
Caco-2 cells; morroniside 0.1 to 200 μM
  cytotoxicity toward Caco-2 cells (in words): nontoxic
[2]
  absolute oral bioavailability: 3.6–7.0%
